Results as given in patent US12414960B2, “Analogues of oleuropein and oleacein and uses thereof” (Attica Sciences Ltd., priority 2020, dated 2025).
Where two headings read alike, the source gives them in different places.

Key:
[1] = test system: HepG2 liver cancer cells; test: XTT cell growth assay, HepG2; type: cell-based, human; conditions: NS = not statistically significant; for inhibition at 50 µM: Homo sapiens, HepG2, 24 h, read-out: Effectiveness to suppress HepG2 cell growth (cell growth inhibition)
Text: The XTT assay is used to measure cellular metabolic activity as an indicator of cell viability, proliferation and cytotoxicity. This non-radioactive, colorimetric assay system was first described by Scudiero, et al. in 1988 (Paull, Kenneth D. et al., J Heterocycl Chem, 1988, 25: 911-914; Scudiero, Dominic A. et al., Cancer Res, 1988, 48: 4827-4833) and improved in subsequent years by several other investigators (Weislow, Owen S. et al., J Natl Cancer Inst, 1989, 81(8): 577-586; Roehm, N. W. et al., J Immunol Methods, 1991, 142: 257-265).
The XTT assay is based on the reduction of a yellow tetrazolium salt (sodium 3′-[1-(phenylaminocarbonyl)-3,4-tetrazolium]-bis (4-methoxy6-nitro) benzene sulfonic acid hydrate or XTT) to an orange formazan dye by metabolically active cells (FIG. 8). The formazan dye formed is soluble in aqueous solutions and is directly quantified using a scanning multiwell spectrophotometer (ELISA reader). An increase in number of living cells results in an increase in the overall activity of mitochondrial dehydrogenases in the sample. This increase directly correlates to the amount of orange formazan formed, as monitored by the absorbance. Reduced number of living cells leads to reduced metabolism of quaternary salt and therefore reduced absorption.
Cell viability was assessed using the XTT assay kit (Roche, Mannheim, Germany) as described previously (Kouka, Paraskevi et al., Oxid Med Cell Longev. 2019, Article ID 1870965). Briefly, cancer cells per well were cultured in a 96-well plate in Dulbecco's modified Eagle's medium (DMEM). Following a 24 h incubation, 5, 10 and 50 μM of the tested GS compound was diluted in a serum-free DMEM and administered for 24 h. Subsequently, 50 μL of the XTT reagent (50:1) was added to each well. After 4 h of incubation, the absorbance was monitored at 450 nm and also at 630 nm as a reference wavelength in a BioTek ELx800 microplate reader (BioTek Instruments Inc., Winooski, VT, USA). As a negative control, samples containing serum-free DMEM only were used.
Hep G2 (or HepG2) is a human liver cancer cell line. Hep G2 is an immortal cell line which was derived from the liver tissue of an adolescent with a well-differentiated hepatocellular carcinoma. Hep G2 cells are a suitable in vitro model system for the study of polarized human hepatocytes.
The effects of exemplary compounds on cancer cell lines and one non-tumorigenic cell line (control) were investigated using a high throughput screening assay. More specifically, the effects of the GS compounds on cell growth was evaluated by the XTT assay for cell lines HepG2, HeLa, MCF7 ER+, MDA-MB-231, and MKN-45, and by the Cell Glo luminescence assay for cell lines MIA PaCa-2, HCT-116, MCF-10A, and PANC-1.

[2] = test system: HeLa cervical cancer cells; test: XTT cell growth assay, HeLa; type: cell-based, human; conditions: 24 h, NS = not statistically significant; for inhibition at 50 µM: Homo sapiens, HeLa, read-out: Effectiveness to suppress HeLa cell growth (cell growth inhibition)
How it was run: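 HeLa cells in DMEM were plated and incubated 24 h, then exposed 24 h to compound at 5, 10 or 50 μM in serum-free DMEM. After 4 h with XTT reagent, formazan absorbance was read at 450 nm (630 nm reference); serum-free medium served as negative control.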

[3] = target: T1, ATP-citrate lyase (ACLY) (Homo sapiens, UniProt P53396); test: ACLY Assay Kit (ADP-Glo) enzymatic activity; type: biochemical
T1 construct: purchased BPS Bioscience
T1 sequence (P53396 1-1101): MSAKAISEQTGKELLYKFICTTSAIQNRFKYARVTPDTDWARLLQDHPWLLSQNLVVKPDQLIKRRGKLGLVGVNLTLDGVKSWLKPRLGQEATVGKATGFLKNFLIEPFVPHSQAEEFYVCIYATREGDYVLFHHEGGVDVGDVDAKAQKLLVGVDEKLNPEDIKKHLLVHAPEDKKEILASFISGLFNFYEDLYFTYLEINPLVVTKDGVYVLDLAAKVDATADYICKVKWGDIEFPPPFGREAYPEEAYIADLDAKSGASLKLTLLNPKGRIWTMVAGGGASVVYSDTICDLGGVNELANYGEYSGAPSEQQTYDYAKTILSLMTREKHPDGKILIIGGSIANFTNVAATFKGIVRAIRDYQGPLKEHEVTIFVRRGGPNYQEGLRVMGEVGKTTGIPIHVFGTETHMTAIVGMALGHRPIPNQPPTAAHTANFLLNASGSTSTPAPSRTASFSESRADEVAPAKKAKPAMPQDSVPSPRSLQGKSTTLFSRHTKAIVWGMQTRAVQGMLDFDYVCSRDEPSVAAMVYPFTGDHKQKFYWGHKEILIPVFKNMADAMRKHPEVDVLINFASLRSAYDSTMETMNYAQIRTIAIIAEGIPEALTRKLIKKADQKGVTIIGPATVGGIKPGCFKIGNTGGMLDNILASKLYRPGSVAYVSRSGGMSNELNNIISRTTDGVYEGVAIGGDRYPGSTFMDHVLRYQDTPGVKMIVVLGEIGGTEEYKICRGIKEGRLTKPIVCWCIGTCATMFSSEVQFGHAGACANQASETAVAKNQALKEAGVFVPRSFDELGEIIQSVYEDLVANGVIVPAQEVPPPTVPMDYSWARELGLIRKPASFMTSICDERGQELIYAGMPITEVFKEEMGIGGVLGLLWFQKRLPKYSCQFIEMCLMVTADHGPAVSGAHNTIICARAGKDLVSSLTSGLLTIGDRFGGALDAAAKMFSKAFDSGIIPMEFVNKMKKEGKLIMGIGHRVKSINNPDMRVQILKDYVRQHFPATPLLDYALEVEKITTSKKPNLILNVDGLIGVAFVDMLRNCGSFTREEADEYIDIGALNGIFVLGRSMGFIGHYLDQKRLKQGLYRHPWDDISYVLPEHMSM
Text: An ACLY Assay Kit (BPS Bioscience) was used to evaluate GS27 against ATP-citrate lyase (ACLY) enzymatic activity. The ACLY Assay Kit is designed to measure ACLY activity for screening and profiling applications using ADP-Glo™ Kinase Assay as a detection reagent (Promega #V6930). The ADP-Glo™ Kinase Assay is a luminescent ADP detection assay that provides a universal, homogeneous, high-throughput screening method to measure kinase activity by quantifying the amount of ADP produced during a kinase reaction. Multiple (1, 10, 100, 250, 500, 1000, 2000 nM) GS27 concentrations were used to evaluate GS27 IC50 activity.

[4] = same assay as GS27, read-out: IC50 against ACLY enzyme

| SMILES | inhibition at 50 µM [1] [%] | inhibition at 50 µM [2] [%] | also measured |
| --- | --- | --- | --- |
| C/C=C(/C=O)[C@@H](CC=O)CC(=O)OCCCCCCCCCCCCCCCC [GS26, (3S,4E)-4-formyl-3-(2-oxoethyl)-4-hexenoic acid hexadecyl ester] | 50 | – | – |
| C/C=C(/C=O)[C@@H](CC=O)CC(=O)SCCc1ccccc1 [GS27, S-phenethyl (3S,4E)-4-formyl-3-(2-oxoethyl)hex-4-enethioate] | 40.9 | 39 | IC50 ([3]; 1-2000 nM tested, read-out: IC50 of ACLY activity): 0.0815 µM |
| C/C=C1/[C@H](OC2OC(CO)C(O)C(O)C2O)OC=C(C(=O)O)[C@H]1CC(=O)OCCc1ccc(O)c(O)c1 (stereo in doubt) [GS6, (2S,4S,E)-4-(2-(3,4-dihydroxyphenethoxy)-2-oxoethyl)-3-ethylidene-2{[(2R,3S,4R,5R,6S)-3,4,5-trihydroxy-6-(hydroxymethyl)tetrahydro-2H-pyran-2-yl]oxy}-3,4dihydro-2H-pyran-5-carboxylic acid] | – | 48 | – |
| C/C=C(/C=O)[C@@H](CC=O)CC(=O)OCCc1ccc(O)cc1 [GS19, (3S,4E)-4-formyl-3-(2-oxoethyl)-4-hexenoic acid 2-(4-hydroxyphenyl)ethyl ester, reference compound] | – | 79.1 | IC50 [3, 4]: > 10 µM |
| C/C=C1/[C@H](O[C@@H]2O[C@H](CO)[C@@H](O)[C@H](O)[C@H]2O)OC=C(C(=O)OC)[C@H]1CC(=O)OCCc1ccc(O)c(O)c1 [GS1, oleuropein] | – | – | IC50 [3, 4]: > 10 µM |
| C/C=C(/C=O)[C@@H](CC=O)CC(=O)OCCCSC [GS28, (3S,4E)-4-formyl-3-(2-oxoethyl)-4-hexenoic acid 3-(methylthio)propyl ester] | 69.7 | 81 | Effectiveness to suppress HepG2 cell growth (cell growth inhibition) ([1]; 50 uM, 24 h): best efficacy; Effectiveness to suppress HeLa cell growth (cell growth inhibition) ([2]; 50 uM): best efficacy |
| C/C=C(/C=O)[C@@H](CC=O)CC(=O)OCCOc1ccccc1 [GS24, (3S,4E)-4-formyl-3-(2-oxoethyl)-4-hexenoic acid 2-phenoxyethyl ester] | 57.9 | 66.6 | – |
